According to patent US12062444B2, “Methods and compositions related to triple-negative breast cancer” (THE UNIVERSITY OF CHICAGO, priority 2017, dated 2024):
“Also recorded” adds a separate entry of the source. Where two headings read alike, the source gives them in different places.

Columns and labels:
[1] = target: T1, GR (Homo sapiens, UniProt P04150); details: cited from earlier work
T1 sequence (P04150 1-777): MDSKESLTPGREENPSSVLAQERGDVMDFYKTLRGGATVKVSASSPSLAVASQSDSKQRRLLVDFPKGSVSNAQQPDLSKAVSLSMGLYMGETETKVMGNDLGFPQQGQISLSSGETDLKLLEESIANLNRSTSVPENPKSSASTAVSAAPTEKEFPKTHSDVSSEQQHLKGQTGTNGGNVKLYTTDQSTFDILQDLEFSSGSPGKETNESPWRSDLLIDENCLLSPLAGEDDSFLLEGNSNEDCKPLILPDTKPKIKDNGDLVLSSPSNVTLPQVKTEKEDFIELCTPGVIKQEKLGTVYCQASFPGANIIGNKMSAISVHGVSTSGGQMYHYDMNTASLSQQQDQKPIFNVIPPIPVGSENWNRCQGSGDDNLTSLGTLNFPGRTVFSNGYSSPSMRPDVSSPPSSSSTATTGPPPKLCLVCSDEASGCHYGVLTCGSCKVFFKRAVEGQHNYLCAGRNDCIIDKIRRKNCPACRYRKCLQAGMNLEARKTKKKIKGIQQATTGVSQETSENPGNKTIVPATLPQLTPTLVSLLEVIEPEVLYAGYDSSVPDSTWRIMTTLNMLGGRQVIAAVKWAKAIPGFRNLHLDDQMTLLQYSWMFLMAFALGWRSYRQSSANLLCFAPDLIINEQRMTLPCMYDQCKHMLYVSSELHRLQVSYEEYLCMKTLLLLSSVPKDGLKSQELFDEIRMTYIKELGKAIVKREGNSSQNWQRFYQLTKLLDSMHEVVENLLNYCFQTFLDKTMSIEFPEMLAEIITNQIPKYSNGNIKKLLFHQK

[2] = target: T2, GR LBD (Homo sapiens, UniProt P04150); experiment: Ligand titration assay via fluorescence polarimetry (displacement of F-Dex); format: binding
T2 construct: The wild-type GR-LBD (amino acid residues 522-777) was cloned into a pFASTBAC plasmid; 6X-His (TEV-cleavable) (cleaved yes); made in house; host or cells: SF9 insect cells (baculovirus, pFASTBAC)
T2 sequence (P04150 522-777): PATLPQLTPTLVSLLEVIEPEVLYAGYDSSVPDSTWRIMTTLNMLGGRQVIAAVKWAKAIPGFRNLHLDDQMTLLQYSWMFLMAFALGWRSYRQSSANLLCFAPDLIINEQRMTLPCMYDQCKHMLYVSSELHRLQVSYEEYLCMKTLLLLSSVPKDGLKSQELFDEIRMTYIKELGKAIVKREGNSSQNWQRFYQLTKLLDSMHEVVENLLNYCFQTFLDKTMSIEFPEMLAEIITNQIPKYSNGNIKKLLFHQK
Protocol: SF9 insect cells were transfected with recombinant bacmid and virus (collected after 6 days) was amplified prior to protein expression. […] GR-LBD was purified first using Ni-affinity chromatography followed by overnight dialysis with TEV protease to remove the His tag. Extensive dialysis into 20 mM TRIS pH 8.0, 500 mM NaCl, 5% glycerol, 0.1% CHAPS, 0.25 mM TCEP was performed to obtain non-ligand-bound GR LBD. […] The purified proteins were concentrated to 5 mg/ml, flash frozen in 50 ul aliquots in N2(l), and stored at −80C.
GR LBD was diluted in assay buffer (20 mM TRIS pH 7.5, 50 mM NaCl, 0.25 mM TCEP) to a concentration of 50 nM. […] Triplicate FP measurements were scaled to maximal FP and averaged for each ligand concentration.

[3] = target: T3, mineralocorticoid receptor (Homo sapiens, UniProt P08235); details: cited from earlier work
T3 sequence (P08235 1-984): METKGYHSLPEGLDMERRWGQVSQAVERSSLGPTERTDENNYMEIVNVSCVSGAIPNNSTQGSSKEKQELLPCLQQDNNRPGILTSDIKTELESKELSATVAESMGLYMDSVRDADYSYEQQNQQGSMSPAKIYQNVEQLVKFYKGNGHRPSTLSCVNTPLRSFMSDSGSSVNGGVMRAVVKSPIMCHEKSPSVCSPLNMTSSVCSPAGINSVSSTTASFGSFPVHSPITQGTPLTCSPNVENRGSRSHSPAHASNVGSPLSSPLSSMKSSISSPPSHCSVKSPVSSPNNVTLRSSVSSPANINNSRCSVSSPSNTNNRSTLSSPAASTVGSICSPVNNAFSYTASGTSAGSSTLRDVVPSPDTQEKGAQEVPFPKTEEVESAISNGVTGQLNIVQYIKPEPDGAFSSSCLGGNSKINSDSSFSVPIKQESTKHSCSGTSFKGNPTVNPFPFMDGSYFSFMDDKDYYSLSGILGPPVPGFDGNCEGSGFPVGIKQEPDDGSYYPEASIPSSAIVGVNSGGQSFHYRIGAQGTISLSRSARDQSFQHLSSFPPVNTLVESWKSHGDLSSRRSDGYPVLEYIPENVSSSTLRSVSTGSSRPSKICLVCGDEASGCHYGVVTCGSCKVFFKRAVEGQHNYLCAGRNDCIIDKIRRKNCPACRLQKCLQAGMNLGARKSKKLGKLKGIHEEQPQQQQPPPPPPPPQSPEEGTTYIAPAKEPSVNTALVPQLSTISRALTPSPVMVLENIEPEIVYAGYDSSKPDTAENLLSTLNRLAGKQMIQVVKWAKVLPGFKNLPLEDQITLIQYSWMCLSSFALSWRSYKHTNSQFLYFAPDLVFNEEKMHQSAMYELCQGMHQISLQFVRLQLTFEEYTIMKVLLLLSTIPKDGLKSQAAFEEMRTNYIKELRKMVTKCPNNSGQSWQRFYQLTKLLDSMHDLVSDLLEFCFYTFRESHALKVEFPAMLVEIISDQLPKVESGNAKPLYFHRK

[4] = tested on: GR chromatin association in MDA-MB-231 cells; experiment: GR ChIP-sequencing and analysis; format: cell-based, human; details: co-treatment with Dex
Protocol: MDA-MB-231 cells were grown to 80% confluence in 15-cm dishes in DMEM with 10% FBS, followed by 48h in DMEM supplemented with 2.5% charcoal-stripped FBS. […] Cells were cross-linked with 1% formaldehyde, quenched with glycine (final concentration of […]), and harvested. After cell lysis with ChIP lysis buffer (Magna ChIP A Chromatin Immunoprecipitation Kit, EMD Millipore), cells were sonicated to achieve the majority of DNA fragments between 200-400 bp. Input samples were preserved at -80° C. […] Following manufacturer's protocol, chromatin was eluted from GR ChIP and input samples. Library build and sequencing was performed at the University of Oregon Genomics Core facility using the NextSeq 500 sequencer. Quality control on sequences and adapter sequencing trimming was performed using Kapa Biosystems Illumina Library Quantification Kit. ChIP-seq analysis was carried out using the Galaxy platform (usegalaxy.org (111)). […] GR peaks for each treatment were normalized to its own input control sample. […] Selected GR peak locations in hg19 and GR peak maps were also individually analyzed using Integrative Genomics Viewer, IGV (Broad Institute (116)).

[5] = tested on: apoptotic cells; details: RU486 in conjunction with dexamethasone, compared to paclitaxel alone; cited from earlier work
[6] = tested on: GR-regulated gene expression in MDA-MB-231 cells; experiment: Gene expression microarray and analysis; format: cell-based, human
Protocol: MDA-MB-231 cells were grown to 80% confluence in 15-cm dishes in DMEM with 10% FBS. […] Following compound exposure, cells were washed in PBS, and lysed in RNA lysis buffer (Qiagen) overnight at -80° C. RNA extraction, with accompanying DNase treatment, was performed using the RNeasy kit (Qiagen) following the manufacturer's protocol. […] The University of Chicago Genomics Core facility carried out the reverse transcription on the samples, followed by microarray using the Affymetrix Human U133 Plus 2.0 platform. […] A principal components analysis (PCA) was performed using the prcomp function in R (Q-mode PCA using singular value decomposition). […] Dex-regulated genes were overlapped with a list of n=5,170 differentially-expressed tumor-derived genes (in the same direction) from GR-high versus GR-low BCs (52). Ingenuity Pathway Analysis (Qiagen) of the n=462 patient-relevant and antagonist-inhibited genes was performed to obtain Activation Z-scores of the most significant Diseases and Biofunctions (cell functions).

[7] = mifepristone 300 mg/day before weekly nab-paclitaxel, BC patients; cited from earlier work
[8] = tested on: tumor cell survival; details: in vitro and in vivo; cited from earlier work
[9] = 50 nM GR LBD, 10 nM F-Dex, ligand 0 to 4000 nM
[10] = log(inhibitor) vs. normalized response, FIG. 7

CNCC(Cl)c1ccc(OC(C)=O)cc1.Cl (stereo not shown) [CpdA]
Displacement of H^3-Dex in cell lysates [1]: displace H^3-Dex in cell lysates | Displacement of fluorescently-labeled Dex (F-Dex) from the GR LBD [2, 9]: did not displace F-Dex from the GR LBD | Displacement of fluorescently-labeled Dex (F-Dex) from the GR LBD ([2]; 50 nM GR LBD, 10 nM F-Dex, ligand 0 to 4000 nM, listed as Compound A): does not bind to ligand pocket | Fit of FP dose response curve (half-maximal FP signal) [2, 10]: does not bind the GR LBD

O=c1[nH]c(=O)c(Cc2cccc(C(F)(F)F)c2)c([C@H]2CC[C@H](c3ccccc3)CC2)[nH]1 [C335]
Binding to the mineralocorticoid receptor [3]: bind the mineralocorticoid receptor | Displacement of fluorescently-labeled Dex (F-Dex) from the GR LBD [2, 9]: low nM affinities | Fit of FP dose response curve (half-maximal FP signal) [2, 10]: able to fit data

CC#C[C@]1(O)CC[C@H]2[C@@H]3CCC4=CC(=O)CCC4=C3[C@@H](c3ccc(N(C)C)cc3)C[C@@]21C [Mif, mifepristone]
Relative GR promoter enrichment (+/−3kb) [4]: decrease in relative GR promoter enrichment | Number of apoptotic cells induced by paclitaxel [5]: did not increase the number of apoptotic cells | Genes for which both GR modulators antagonized GR induction or repression by at least 25% ([6]; 100 nM with 100 nM Dex): 3,066 | Antagonized GR-regulated genes shared with the other antagonist ([6]; C297 versus Mif, 100 nM): 68% | Pathway activation Z-score (Ingenuity Pathway Analysis) relative to Dex ([6]; n=462 genes, cell survival, invasion, EMT pathways, FIG. 13): relative dampening of Z-score magnitude | Safety and tolerability of the combination with nab-paclitaxel [7]: safe and tolerable; also recorded: potential for increased cytopenias | Displacement of fluorescently-labeled Dex (F-Dex) from the GR LBD [2]: low nM affinities | Fit of FP dose response curve (half-maximal FP signal) [2]: able to fit data | Paclitaxel cytotoxicity under GC activation [8]: increase paclitaxel cytotoxicity both in vitro and in vivo
